Measured values taken from US20260193222A1, “COMPOUND AND USE THEREOF IN TREATMENT OF TREG-RELATED DISEASES” (BENETHERA (SHAOXING) BIOTECHNOLOGY CO., LTD., priority 2022, published 2026).

Experiments:
[1] = O-1602 release of O-1602 derivatives under different pH conditions (HPLC area percentage); assay type: physicochemical; details: for completeness of O-1602 release (in words): partial release with degradation into other impurities
Protocol: Example 1: Experimental on O-1602 Releases of O-1602 Derivatives Under Different pH Conditions
• Chromatographic column: shimnex CS C18 5 μm, 4.6*250 mm • Mobile phase A: 0.1% phosphoric acid in water; mobile phase B: acetonitrile (see Table 1)
Buffer solution (pH 1.6): 32.4 ml of 0.2 mol/L hydrochloric acid was accurately measured, diluted with water to 200 ml, and shaken well.
Phosphate buffer (pH 5.0): a certain amount of 0.2 mol/L sodium dihydrogen phosphate solution was taken and the pH value was adjusted by using 0.2 mol/L sodium hydroxide solution to 5.0.
Phosphate buffer (pH 6.8): a certain amount of 0.2 mol/L sodium dihydrogen phosphate solution was taken and the pH value was adjusted by using 0.2 mol/L sodium hydroxide solution to 6.8.
Phosphate buffer (pH 7.2): a certain amount of 0.2 mol/L sodium dihydrogen phosphate solution was taken and the pH value was adjusted by using 0.2 mol/L sodium hydroxide solution to 7.2.
Phosphate buffer (pH 8.0): a certain amount of 0.2 mol/L sodium dihydrogen phosphate solution was taken and the pH value was adjusted by using 0.2 mol/L sodium hydroxide solution to 8.0.
About 1 mg of O-1602 derivative was placed in a 2 mL centrifuge tube and dissolved by adding 1 mL of acetonitrile. Then 1 mL of buffer solution was added and shaken well. The obtained solution was incubated at 37° C., and sampled for determination respectively after for 2 hours and 4 hours. (The releases of O-1602 were respectively investigated at pH 1.6, pH 5.0, pH 6.8, pH 7.2, and pH 8.0)
Calculations: the content of O-1602 was calculated by area percentage.

[2] = system: CS7BL/6 mice with TNBS-induced acute enteritis; test: 2,4,6-trinitrobenzene sulfonic acid (TNBS)-induced acute enteritis in mice; assay type: in vivo; details: for weight loss in model animals / disease activity index (DAI) / damage to colon tissue / length of colon: 1 mg/kg, once daily gavage; for weight loss in model animals: day 0 to day 4, FIG. 2; for disease activity index (DAI): day 0 to day 4, FIG. 3; for damage to colon tissue: dissection on day 5, FIG. 5; for length of colon: dissection on day 5, FIGS. 4 and 5; for efficacy compared with tofacitinib: derivative 1 mg/kg versus positive control tofacitinib
Protocol: CS7BL/6 mice, male, and female, 6 to 10 weeks old were used. On day-7 of the experiment, the experimental animals were weighed, and the mice were randomly divided into cages according to their body weights. The animals were allowed to adapt to the environment of the animal room. The animal room was maintained at a constant temperature (23° C.±3° C.) and constant humidity (50% relative humidity). Animals are fed standard laboratory food and have free access to drinking water. On day 0, mice were induced for TNBS colitis by intrarectal injection. The dosage of TNBS was 125 mg/kg. The solvent was 30% alcohol. Each mouse received a volume of 100 μl. After the rectal injection, the mice were inverted for 1 minute to prevent leakage of the drug solution.
The solid O-1602 derivative was dissolved in DMSO at a concentration of 2 mg/ml. The above solution was diluted to 0.1 mg/ml using PBS. TNBS enteritis mice received once daily gavage in a volume of 200 μl and were dosed daily at 11:00 a. m. The dosage of the O-1602 derivative was 1 mg/kg. The treatment schedule for the O-1602 derivative was from day 0 to day 4 of the TNBS. The mice in the control group were administered with an equal volume of solvent by gavage. At the same time, the anti-colitis drug JAK inhibitor tofacitinib was used as a positive control. The experimental results of O-1602 derivatives in this model experiment were compared. The O-1602 derivatives were dissolved in the above-mentioned way; the concentration was 1.5 mg/mL; the volume of intragastric administration was 200 μL; and the dosage was 15 mg/kg.
Mice were observed daily for body weight and anal bleeding, and the daily disease activity index (DAI) was calculated and recorded.
The experiment was terminated on day 5 of TNBS. Mice were euthanized by cervical amputation under isoflurane anesthesia. The mice were dissected and the whole colon was obtained. The length of the colon was measured and photographed.

[3] = pH 1.6~8.0, 37° C., 2 hours and 4 hours

SMILES: C=C(C)[C@@H]1CCC(C)=C[C@H]1c1c(C)cc(OC(=O)OCCN(CC)CC)cc1OC(=O)OCCN(CC)CC [Compound 1]
- Principal component % ([1]; 0 h): 97.185%
- Principal component % ([1]; Buffer (pH 1.6), 37° C., 2 h): 96.906%
- Principal component % ([1]; Buffer (pH 1.6), 37° C., 4 h): 94.115%
- Principal component % ([1]; Buffer (pH 5.0), 37° C., 2 h): 78.030%
- O-1602% ([1]; Buffer (pH 5.0), 37° C., 4 h): 0.457%
- Principal component % ([1]; Buffer (pH 5.0), 37° C., 4 h): 24.651%
- O-1602% ([1]; Buffer (pH 6.8), 37° C., 2 h): 9.801%
- O-1602% ([1]; Buffer (pH 6.8), 37° C., 4 h): 20.813%
- O-1602% ([1]; Buffer (pH 7.2), 37° C., 2 h): 6.354%
- O-1602% ([1]; Buffer (pH 7.2), 37° C., 4 h): 20.172%
- O-1602% ([1]; Buffer (pH 8.0), 37° C., 2 h): 11.455%
- O-1602% ([1]; Buffer (pH 8.0), 37° C., 4 h): 33.963%
- release amount of O-1602 (in words) [1, 3]: relatively high
- completeness of O-1602 release (in words) ([1]; pH 1.6~8.0, 37° C.): only partially released
- weight loss in model animals [2]: significantly alleviated

SMILES: C=C(C)[C@@H]1CCC(C)=C[C@H]1c1c(C)cc(OC(C)=O)cc1OC(C)=O [Compound 2]
- release amount of O-1602 (in words) [1, 3]: no O-1602 was released

SMILES: C=C(C)[C@@H]1CCC(C)=C[C@H]1c1c(C)cc(OC(=O)NC(C(=O)O)C(C)C)cc1OC(=O)NC(C(=O)O)C(C)C (stereo partly shown) [Compound 3]
- weight loss in model animals [2]: significantly alleviated
- disease activity index (DAI) [2]: significantly alleviated
- damage to colon tissue [2]: reduced
- length of colon [2]: increased
- efficacy compared with tofacitinib [2]: superior efficacy

SMILES: C=C(C)[C@@H]1CCC(C)=C[C@H]1c1c(C)cc(OC(=O)NCCCCN)cc1O [Compound 6]
- release amount of O-1602 (in words) [1, 3]: small amount
- weight loss in model animals [2]: significantly alleviated
- disease activity index (DAI) [2]: significantly alleviated
- damage to colon tissue [2]: reduced
- length of colon [2]: increased
- efficacy compared with tofacitinib [2]: superior efficacy

SMILES: C=C(C)[C@@H]1CCC(C)=C[C@H]1c1c(C)cc(OC(=O)C(N)C(C)C)cc1OC(=O)C(N)C(C)C (stereo partly shown) [Compound 7]
- Principal component % ([1]; 0 h): 87.691%
- Principal component % ([1]; Buffer (pH 1.6), 37° C., 2 h): 79.094%
- Principal component % ([1]; Buffer (pH 1.6), 37° C., 4 h): 81.424%
- O-1602% ([1]; Buffer (pH 5.0), 37° C., 2 h): 1.088%
- Principal component % ([1]; Buffer (pH 5.0), 37° C., 2 h): 26.693%
- O-1602% ([1]; Buffer (pH 5.0), 37° C., 4 h): 3.800%
- Principal component % ([1]; Buffer (pH 5.0), 37° C., 4 h): 8.307%
- O-1602% ([1]; Buffer (pH 6.8), 37° C., 2 h): 1.972%
- Principal component % ([1]; Buffer (pH 6.8), 37° C., 2 h): 3.401%
- O-1602% ([1]; Buffer (pH 6.8), 37° C., 4 h): 3.518%
- Principal component % ([1]; Buffer (pH 6.8), 37° C., 4 h): 1.551%
- O-1602% ([1]; Buffer (pH 7.2), 37° C., 2 h): 29.354%
- O-1602% ([1]; Buffer (pH 7.2), 37° C., 4 h): 19.343%
- O-1602% ([1]; Buffer (pH 8.0), 37° C., 2 h): 11.933%
- O-1602% ([1]; Buffer (pH 8.0), 37° C., 4 h): 43.976%
- release amount of O-1602 (in words) [1, 3]: relatively high
- completeness of O-1602 release (in words) ([1]; pH 1.6~8.0, 37° C.): only partially released
- weight loss in model animals [2]: significantly alleviated
- disease activity index (DAI) [2]: significantly alleviated
- damage to colon tissue [2]: reduced
- length of colon [2]: increased
- efficacy compared with tofacitinib [2]: superior efficacy

SMILES: C=C(C)[C@@H]1CCC(C)=C[C@H]1c1c(C)cc(OC(=O)N(C)C)cc1OC(=O)N(C)C [Compound 8]
- release amount of O-1602 (in words) [1, 3]: no O-1602 was released
- stability (in words) [1, 3]: good stability

SMILES: C=C(C)[C@@H]1CCC(C)=C[C@H]1c1c(C)cc(OC(=O)NCCN2CCN(C)CC2)cc1OC(=O)NCCN1CCN(C)CC1 [Compound 11]
- release amount of O-1602 (in words) [1, 3]: small amount
- disease activity index (DAI) [2]: significantly alleviated
- damage to colon tissue [2]: reduced
- length of colon [2]: increased
- efficacy compared with tofacitinib [2]: superior efficacy

SMILES: C=C(C)[C@@H]1CCC(C)=C[C@H]1c1c(C)cc(OC(=O)CN(C)C)cc1O [Compound 13]
- O-1602 release (in words) ([1]; acidic buffer solution (pH 1.6), 37° C., 4 hours): trace amount
- release amount of O-1602 (in words) [1, 3]: small amount
